Measured values published in EP0164635A2, “Imidazothiazolemethylene-acetohydrazide derivatives, preparation thereof and pharmaceutical composition having diuretic activity” (MEDIOLANUM FARMACEUTICI s.r.l., priority 1984, dated 1985).
Where “and” joins values, the source holds several entries; their conditions need not be identical. Identical values can stand only once.

Legend:
[1] = tested on: rats; assay: Diuretic activity: urinary sodium excretion over 6 hours after oral administration; type: in vivo, rat; conditions: read-out: Diuretic effect %; for response vs control in vivo at 20 mg/kg: dose 20 mg/kg oral; for response vs control in vivo at 10 mg/kg: dose 10 mg/kg oral
Protocol: The first series of tests was carried out to rats orally administered with distilled water (25 ml/kg) containing the product under test, previously suspended in Tween 80 (1% v/v with respect to water). Urina of the 6 hours following the treatment was collected in order to measure the sodium concentration, by means of atomic absorption. The ratio of the meq/100 g of body weight of the treated animals to the corresponding ratio of the meq/100 g of body weight of the control animals (treated with the sole vehicle) was calculated, in order to determine the dose of the test compound doubling or trebling or anyway increasing the sodium excretion.

[2] = in vivo; conditions: rat
[3] = tested on: rat; assay: Excreted urinary volumes after oral administration, with a second water load after 0-3 h; type: in vivo
Protocol: (§1) The compounds were administered by the oral route, under the same conditions as described in the previous test, but the animals, after the O-3 hours interval, were treated with further 25 ml/kg of distilled water, by intubation.

[4] = tested on: rat; assay: Excreted urinary electrolytes after oral administration, with a second water load after 0-3 h; type: in vivo
Protocol: as §1

[5] = rat, sodium urinary excretion in 6 h vs controls (control = 100)

## CC(=O)Nc1nnc(S(N)(=O)=O)s1 [Acetazolamide, acetazolamide, reference compound]
[1]; Rattus norvegicus, po, 6 h
  response vs control in vivo at 2.5 mg/kg: 200%

## CN(C)CC(=O)NN=Cc1c(-c2ccc(Cl)cc2)nc2n1CCS2 [Example 11]
[1]; [5]
  response vs control in vivo at 20 mg/kg: 230%
[2]; ip
  LD50: ~600 mg/kg
[2]; po
  LD50: ~800 mg/kg

## CC(=O)S[C@@H]1CC2=CC(=O)CC[C@]2(C)[C@H]2CC[C@@]3(C)[C@@H](CC[C@@]34CCC(=O)O4)[C@H]12 [Spironolactone, spironolactone, reference compound]
[1]; [5]
  response vs control in vivo at 20 mg/kg: 360%

## Cc1ccc(-c2nc3n(c2C=NNC(=O)CN(C)C)CCS3)cc1 [Example 12]
[1]; [5]
  response vs control in vivo at 20 mg/kg: 120%
[2]; ip
  LD50: ~600 mg/kg
[2]; po
  LD50: ~800 mg/kg

## NS(=O)(=O)c1cc(C(=O)O)c(NCc2ccco2)cc1Cl [Furosemide, furosemide, reference compound]
[1]; [5]
  response vs control in vivo at 10 mg/kg: 490%
[3]; 10 mg/kg, 0-3 h
  EXCRETED URINARY VOLUMES WITH RESPECT TO BODY WEIGHT: 0.0365 L/kg and 0.0265 L/kg
[3]; 10 mg/kg, 0-6 h
  EXCRETED URINARY VOLUMES WITH RESPECT TO BODY WEIGHT: 0.0451 L/kg and 0.0472 L/kg
[3]; 10 mg/kg, 3-6 h
  EXCRETED URINARY VOLUMES WITH RESPECT TO BODY WEIGHT: 0.0107 L/kg and 0.0186 L/kg
[4]; 10 mg/kg, 0-3 h
  EXCRETED URINARY ELECTROLYTES WITH RESPECT TO BODY WEIGHT, K^+: 0.87 mEq/kg and 1.02 mEq/kg
  EXCRETED URINARY ELECTROLYTES WITH RESPECT TO BODY WEIGHT, Na^+: 1.30 mEq/kg and 1.82 mEq/kg
[4]; 10 mg/kg, 0-6 h
  EXCRETED URINARY ELECTROLYTES WITH RESPECT TO BODY WEIGHT, K^+: 1.15 mEq/kg and 1.11 mEq/kg
  EXCRETED URINARY ELECTROLYTES WITH RESPECT TO BODY WEIGHT, Na^+: 1.38 mEq/kg and 1.85 mEq/kg
[4]; 10 mg/kg, 3-6 h
  EXCRETED URINARY ELECTROLYTES WITH RESPECT TO BODY WEIGHT, K^+: 0.24 mEq/kg and 0.13 mEq/kg

## Cc1cn2c(C=NNC(=O)CN(C)C)c(C)nc2s1 [Example 6, N,N-dimethylamino-acetyl-[[2-methyl-6-methyl-imidazo[2,1-a]thiazole-5-yl]methylene]-hydrazide]
[1]; [5]
  response vs control in vivo at 10 mg/kg: 180%
[2]; ip
  LD50: ~600 mg/kg
[2]; po
  LD50: ~1000 mg/kg

## Cc1csc2nc(-c3ccccc3)c(C=NNC(=O)CN(C)C)n12 [Example 7]
[1]; dose 0.5 mg/kg oral, rat, sodium urinary excretion in 6 h vs controls (control = 100)
  response vs control in vivo at 0.5 mg/kg: 250%
[3]; 2.5 mg/kg, 0-3 h
  EXCRETED URINARY VOLUMES WITH RESPECT TO BODY WEIGHT: 0.0333 L/kg
[3]; 2.5 mg/kg, 0-6 h
  EXCRETED URINARY VOLUMES WITH RESPECT TO BODY WEIGHT: 0.0469 L/kg
[3]; 2.5 mg/kg, 3-6 h
  EXCRETED URINARY VOLUMES WITH RESPECT TO BODY WEIGHT: 0.0136 L/kg
[3]; 10 mg/kg, 0-3 h
  EXCRETED URINARY VOLUMES WITH RESPECT TO BODY WEIGHT: 0.0326 L/kg
[3]; 10 mg/kg, 0-6 h
  EXCRETED URINARY VOLUMES WITH RESPECT TO BODY WEIGHT: 0.0474 L/kg
[3]; 10 mg/kg, 3-6 h
  EXCRETED URINARY VOLUMES WITH RESPECT TO BODY WEIGHT: 0.0147 L/kg
[4]; 10 mg/kg, 0-3 h
  EXCRETED URINARY ELECTROLYTES WITH RESPECT TO BODY WEIGHT, Cl^-: 2.55 mEq/kg
  EXCRETED URINARY ELECTROLYTES WITH RESPECT TO BODY WEIGHT, K^+: 1.04 mEq/kg
  EXCRETED URINARY ELECTROLYTES WITH RESPECT TO BODY WEIGHT, Na^+: 2.55 mEq/kg
[4]; 10 mg/kg, 0-6 h
  EXCRETED URINARY ELECTROLYTES WITH RESPECT TO BODY WEIGHT, Cl^-: 2.57 mEq/kg
  EXCRETED URINARY ELECTROLYTES WITH RESPECT TO BODY WEIGHT, K^+: 1.29 mEq/kg
  EXCRETED URINARY ELECTROLYTES WITH RESPECT TO BODY WEIGHT, Na^+: 2.71 mEq/kg
[4]; 10 mg/kg, 3-6 h
  EXCRETED URINARY ELECTROLYTES WITH RESPECT TO BODY WEIGHT, Cl^-: 0.025 mEq/kg
  EXCRETED URINARY ELECTROLYTES WITH RESPECT TO BODY WEIGHT, K^+: 0.25 mEq/kg
  EXCRETED URINARY ELECTROLYTES WITH RESPECT TO BODY WEIGHT, Na^+: 0.16 mEq/kg
[4]; head prints 10 mg/kg, 0-3 h
  EXCRETED URINARY ELECTROLYTES WITH RESPECT TO BODY WEIGHT, Cl^-: 1.53 mEq/kg
  EXCRETED URINARY ELECTROLYTES WITH RESPECT TO BODY WEIGHT, K^+: 0.93 mEq/kg
  EXCRETED URINARY ELECTROLYTES WITH RESPECT TO BODY WEIGHT, Na^+: 2.03 mEq/kg
[4]; head prints 10 mg/kg, 0-6 h
  EXCRETED URINARY ELECTROLYTES WITH RESPECT TO BODY WEIGHT, Cl^-: 1.53 mEq/kg
  EXCRETED URINARY ELECTROLYTES WITH RESPECT TO BODY WEIGHT, K^+: 1.26 mEq/kg
  EXCRETED URINARY ELECTROLYTES WITH RESPECT TO BODY WEIGHT, Na^+: 2.17 mEq/kg
[4]; head prints 10 mg/kg, 3-6 h
  EXCRETED URINARY ELECTROLYTES WITH RESPECT TO BODY WEIGHT, Cl^-: 0.0 mEq/kg
  EXCRETED URINARY ELECTROLYTES WITH RESPECT TO BODY WEIGHT, K^+: 0.33 mEq/kg
  EXCRETED URINARY ELECTROLYTES WITH RESPECT TO BODY WEIGHT, Na^+: 0.14 mEq/kg
[2]; ip
  LD50: > 3000 mg/kg
[2]; po
  LD50: > 3000 mg/kg

## CN(C)CC(=O)NN=Cc1c(Cl)nc2sccn12 [Example 1]
[1]; [5]
  response vs control in vivo at 20 mg/kg: 120%
[2]; ip
  LD50: ~250 mg/kg
[2]; po
  LD50: ~1500 mg/kg

## Cc1nc2sccn2c1C=NNC(=O)CN(C)C [Example 2]
[2]; ip
  LD50: ~600 mg/kg
[2]; po
  LD50: ~1500 mg/kg
